Laboratory results: US7115584B2, “HIV-1 mutations selected for by β-2′,3′-didehydro-2′,3′-dideoxy-5-fluorocytidine” (priority 1999, dated 2006)
Where two headings read alike, the source gives them in different places.

Experiments:
[1] = tested on: acutely infected human PBM cells; assay: Median effect and combination index analysis, alone and in combination; assay type: cell-based; settings: PBMC, 144 h
HIV-1LAV = assay: Effect against HIV-1 and cloned viruses in human PBM cells; assay type: cell-based
M184VPITT = assay: as above; assay type: cell-based
M184V/T215YPITT = assay: as above; assay type: cell-based
xxBRUPITT = assay: as above; assay type: cell-based
T215YPITT = assay: as above; assay type: cell-based
215/41PITT = assay: as above; assay type: cell-based
[2] = tested on: G2-2PITT (103N, 41L, 184V, 210W, others); assay: Effect against cloned viruses, in MT-2 cells; assay type: cell-based, HIV-1; set-up: unit not given beside the values
[3] = tested on: 4X AZTPITT (67N, 70R, 215Y, 219Q); assay: Effect against HIV-1 and cloned viruses in human PBM cells; assay type: cell-based
[4] = EC50 resistant virus vs HIV-1LAV or xxBRUPITT, listed as β-D-D4FC

In the case of `Cc1cn([C@H]2C[C@H](N=[N+]=[N-])[C@@H](CO)O2)c(=O)[nH]c1=O` [AZT, 3′-azido-3′-deoxythymidine], the EC90 [1] is reported as 32 nM.

`Nc1nc(=O)n([C@H]2C=C[C@@H](CO)O2)cc1F` [β-L-D4FC, β-2′,3′-didehydro-2′,3′-dideoxy-5-fluorocytidine] was tested, and the EC50 (HIV-1LAV) was 34 nM, the EC90 (HIV-1LAV) was 160 nM and the EC50 (M184VPITT; human PBM cells) was 3660 nM. It also gave an EC90 (M184VPITT; human PBM cells) of 14300 nM, an EC50 (M184V/T215YPITT; human PBM cells) of 8300 nM and an EC90 (M184V/T215YPITT; human PBM cells) of 74600 nM. The EC50 (xxBRUPITT) was 25 nM, the EC90 (xxBRUPITT) was 88 nM and the EC50 (T215YPITT) was 4.7 nM. It also gave an EC90 (T215YPITT) of 30 nM, an EC50 (215/41PITT; human PBM cells) of 18 nM and an EC90 (215/41PITT; human PBM cells) of 66 nM. For the same molecule, the FI50 [2] was over 47.

Work on `Nc1nc(=O)n([C@H]2C=C[C@@H](CO)O2)cc1F` [D-D4FC, β-2′,3′-didehydro-2′,3′-dideoxy-5-fluorocytidine] yielded an EC50 (HIV-1LAV; listed as β-D-D4FC) of 220 nM, an EC90 (HIV-1LAV; listed as β-D-D4FC) of 1320 nM and an FI50 ([3]; 4X AZTPITT, EC50 resistant virus vs HIV-1LAV or xxBRUPITT) of 1. The FI90 ([3]; 4X AZTPITT, EC90 resistant virus vs HIV-1LAV or xxBRUPITT) was 1, the EC90 ([3]; human PBM cells, 4X AZTPITT (67N, 70R, 215Y, 219Q), listed as β-D-D4FC) was 460 nM and the FI50 (M184VPITT; [4]) was 2. For the same molecule, the FI50 (M184V/T215YPITT; [4]) was 1, the FI90 (M184V/T215YPITT; EC90 resistant virus vs HIV-1LAV or xxBRUPITT, listed as β-D-D4FC) was 1 and the FI90 (215/41PITT; EC90 resistant virus vs HIV-1LAV or xxBRUPITT) was 1. For the same molecule, the FI50 ([2]; listed as β-D-D4FC) was 0.2.
